Read-outs that look alike come from different tables or passages of the source. One block for each compound: values may come before it.
Experiments:
[1] = biological target: human peroxisome proliferator-activated receptor gamma (PPARγ) (Homo sapiens, UniProt P37231); assay: human peroxisome proliferator-activated receptor gamma (PPARγ) transactivation assay; format: cell-based
HepG2 cells = assay: HepG2 cytotoxicity assay (CellTiter Glo); format: cell-based; conditions: Homo sapiens, HepG2, 72 h, read-out: IC50 (cyto)
hPXR [2] = biological target: T1, hPXR (Homo sapiens (Human), UniProt O75469)
hPXR [3] = biological target: T1, hPXR; assay: hPXR transactivation assays (agonistic and antagonistic), HepG2 cells with CYP3A4-luciferase reporter; conditions: 24 h, NA = not active; for IC50: read-out: IC50 (antag), antagonistic assay, combined with 5 μM rifampicin; for EC50: read-out: EC50 (agon), agonistic assay, compound alone
[4] = biological target: human retinoid X receptor beta (hRXRβ) (Homo sapiens, UniProt P28702); assay: human retinoid X receptor beta (hRXRβ) transactivation assay; format: cell-based; conditions: for IC50: Anta = compound exhibited antagonism, read-out: RXRβ (Anta)
[5] = biological target: human retinoid X receptor alpha (hRXRα) (Homo sapiens, UniProt P19793); assay: human retinoid X receptor alpha (hRXRα) transactivation assay; format: cell-based; conditions: Anta = compound exhibited antagonism; read-out: RXRα (Anta)
[6] = biological target: human Farnesoid X receptor (hFXR) (Homo sapiens, UniProt Q96RI1); assay: human Farnesoid X receptor (hFXR) transactivation assay; format: cell-based; conditions: Anta = compound exhibited antagonism; read-out: FXR (Anta)
[7] = biological target: human glucocorticoid receptor (hGR) (Homo sapiens, UniProt P04150); assay: human glucocorticoid receptor (hGR) transactivation assay; format: cell-based; conditions: Anta = compound exhibited antagonism; read-out: GR (Anta)
[8] = biological target: human vitamin D receptor (hVDR) (Homo sapiens, UniProt P11473); assay: human vitamin D receptor (hVDR) transactivation assay; format: cell-based
[9] = biological target: human Liver X receptor beta (hLXRβ) (Homo sapiens, UniProt P55055); assay: human Liver X receptor beta (hLXRβ) transactivation assay; format: cell-based; conditions: Anta = compound exhibited antagonism; read-out: LXRβ (Anta)
[10] = biological target: human Liver X receptor alpha (hLXRα) (Homo sapiens, UniProt Q13133); assay: human Liver X receptor alpha (hLXRα) transactivation assay; format: cell-based; conditions: Anta = compound exhibited antagonism; read-out: LXRα (Anta)
[11] = Anta = compound exhibited antagonism, read-out: PPARγ (Anta)

T1 sequence (O75469 whole entry): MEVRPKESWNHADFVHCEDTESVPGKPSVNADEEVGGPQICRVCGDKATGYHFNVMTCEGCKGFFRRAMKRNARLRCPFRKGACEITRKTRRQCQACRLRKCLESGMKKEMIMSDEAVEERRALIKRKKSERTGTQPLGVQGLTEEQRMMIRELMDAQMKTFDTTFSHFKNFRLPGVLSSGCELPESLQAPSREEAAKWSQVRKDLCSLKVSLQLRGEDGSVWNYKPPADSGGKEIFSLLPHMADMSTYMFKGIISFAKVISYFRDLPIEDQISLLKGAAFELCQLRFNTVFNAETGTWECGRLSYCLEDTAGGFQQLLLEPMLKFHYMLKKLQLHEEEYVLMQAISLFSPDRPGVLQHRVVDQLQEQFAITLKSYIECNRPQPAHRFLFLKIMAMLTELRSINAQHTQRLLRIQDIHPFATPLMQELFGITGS
Chain of human glucocorticoid receptor (hGR) (P04150 whole entry, looked up): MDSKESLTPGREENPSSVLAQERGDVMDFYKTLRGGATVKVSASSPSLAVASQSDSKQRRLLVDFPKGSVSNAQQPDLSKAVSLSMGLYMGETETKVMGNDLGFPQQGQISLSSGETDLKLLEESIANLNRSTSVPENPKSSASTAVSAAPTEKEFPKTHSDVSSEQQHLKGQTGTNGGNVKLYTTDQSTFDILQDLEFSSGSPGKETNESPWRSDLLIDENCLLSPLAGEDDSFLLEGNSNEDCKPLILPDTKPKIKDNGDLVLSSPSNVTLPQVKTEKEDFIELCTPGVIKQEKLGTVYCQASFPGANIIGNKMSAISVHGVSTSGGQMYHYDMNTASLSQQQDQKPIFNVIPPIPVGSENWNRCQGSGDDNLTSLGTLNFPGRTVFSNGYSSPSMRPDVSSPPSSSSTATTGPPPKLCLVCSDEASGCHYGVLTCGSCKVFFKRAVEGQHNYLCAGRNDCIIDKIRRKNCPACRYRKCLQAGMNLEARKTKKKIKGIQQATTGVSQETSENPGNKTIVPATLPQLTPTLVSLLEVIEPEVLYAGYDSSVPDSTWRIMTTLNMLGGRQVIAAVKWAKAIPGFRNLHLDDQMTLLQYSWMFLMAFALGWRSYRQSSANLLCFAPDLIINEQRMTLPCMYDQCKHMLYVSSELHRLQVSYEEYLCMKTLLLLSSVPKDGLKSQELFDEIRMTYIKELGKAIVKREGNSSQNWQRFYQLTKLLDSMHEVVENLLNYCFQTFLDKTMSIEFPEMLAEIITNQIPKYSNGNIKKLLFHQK
Chain of human retinoid X receptor beta (hRXRβ) (P28702 whole entry, looked up): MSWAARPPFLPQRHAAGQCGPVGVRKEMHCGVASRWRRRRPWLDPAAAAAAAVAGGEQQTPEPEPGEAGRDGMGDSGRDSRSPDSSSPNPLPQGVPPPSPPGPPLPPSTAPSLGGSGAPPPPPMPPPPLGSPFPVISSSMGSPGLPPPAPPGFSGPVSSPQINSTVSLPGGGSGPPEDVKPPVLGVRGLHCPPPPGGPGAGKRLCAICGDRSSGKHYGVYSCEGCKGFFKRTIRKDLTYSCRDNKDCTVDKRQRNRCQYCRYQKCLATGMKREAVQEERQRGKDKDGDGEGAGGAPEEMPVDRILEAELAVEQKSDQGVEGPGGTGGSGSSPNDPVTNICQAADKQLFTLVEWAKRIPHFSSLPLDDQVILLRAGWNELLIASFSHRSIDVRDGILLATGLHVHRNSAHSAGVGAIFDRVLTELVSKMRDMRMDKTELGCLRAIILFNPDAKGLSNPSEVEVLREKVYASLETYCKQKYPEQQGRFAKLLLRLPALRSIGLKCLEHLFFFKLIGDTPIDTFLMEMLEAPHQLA
Chain of human peroxisome proliferator-activated receptor gamma (PPARγ) (P37231 whole entry, looked up): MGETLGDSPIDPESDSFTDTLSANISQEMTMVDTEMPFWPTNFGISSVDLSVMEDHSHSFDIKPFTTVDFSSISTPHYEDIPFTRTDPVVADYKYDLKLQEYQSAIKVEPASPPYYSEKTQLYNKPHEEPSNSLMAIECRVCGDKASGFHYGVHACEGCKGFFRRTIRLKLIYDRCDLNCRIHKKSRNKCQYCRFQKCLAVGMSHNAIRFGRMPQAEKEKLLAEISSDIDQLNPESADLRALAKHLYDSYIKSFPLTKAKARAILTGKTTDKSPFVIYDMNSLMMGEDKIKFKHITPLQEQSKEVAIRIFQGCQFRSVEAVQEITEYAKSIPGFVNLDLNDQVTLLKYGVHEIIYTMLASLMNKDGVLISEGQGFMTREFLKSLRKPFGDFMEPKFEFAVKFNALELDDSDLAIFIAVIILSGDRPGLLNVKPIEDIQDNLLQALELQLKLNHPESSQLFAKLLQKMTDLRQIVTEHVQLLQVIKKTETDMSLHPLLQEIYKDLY
Chain of human Farnesoid X receptor (hFXR) (Q96RI1 whole entry, looked up): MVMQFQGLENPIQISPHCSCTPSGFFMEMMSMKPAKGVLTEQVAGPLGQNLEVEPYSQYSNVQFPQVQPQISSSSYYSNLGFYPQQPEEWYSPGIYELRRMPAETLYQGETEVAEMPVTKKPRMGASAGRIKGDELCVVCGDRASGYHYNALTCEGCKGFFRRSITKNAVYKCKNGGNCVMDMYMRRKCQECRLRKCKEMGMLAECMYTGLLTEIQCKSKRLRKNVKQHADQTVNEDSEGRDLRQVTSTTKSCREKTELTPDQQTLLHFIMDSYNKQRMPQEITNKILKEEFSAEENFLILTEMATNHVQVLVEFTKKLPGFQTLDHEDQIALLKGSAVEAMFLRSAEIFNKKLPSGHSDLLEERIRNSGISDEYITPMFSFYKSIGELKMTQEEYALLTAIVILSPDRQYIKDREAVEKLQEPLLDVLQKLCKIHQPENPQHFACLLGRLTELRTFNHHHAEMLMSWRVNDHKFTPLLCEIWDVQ
Chain of human retinoid X receptor alpha (hRXRα) (P19793 whole entry, looked up): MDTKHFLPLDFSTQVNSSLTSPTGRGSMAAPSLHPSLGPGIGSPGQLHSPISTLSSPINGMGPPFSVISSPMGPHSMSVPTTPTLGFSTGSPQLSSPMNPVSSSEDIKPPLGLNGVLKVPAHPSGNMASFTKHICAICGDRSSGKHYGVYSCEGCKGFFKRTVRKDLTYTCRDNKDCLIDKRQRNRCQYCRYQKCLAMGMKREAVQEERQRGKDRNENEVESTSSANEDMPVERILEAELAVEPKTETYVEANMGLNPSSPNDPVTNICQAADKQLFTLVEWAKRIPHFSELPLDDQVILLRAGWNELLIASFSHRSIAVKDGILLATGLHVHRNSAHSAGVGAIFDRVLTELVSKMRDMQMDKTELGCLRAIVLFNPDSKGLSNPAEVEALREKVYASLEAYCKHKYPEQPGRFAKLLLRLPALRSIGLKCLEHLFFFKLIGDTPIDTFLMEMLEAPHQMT
Chain of human Liver X receptor beta (hLXRβ) (P55055 whole entry, looked up): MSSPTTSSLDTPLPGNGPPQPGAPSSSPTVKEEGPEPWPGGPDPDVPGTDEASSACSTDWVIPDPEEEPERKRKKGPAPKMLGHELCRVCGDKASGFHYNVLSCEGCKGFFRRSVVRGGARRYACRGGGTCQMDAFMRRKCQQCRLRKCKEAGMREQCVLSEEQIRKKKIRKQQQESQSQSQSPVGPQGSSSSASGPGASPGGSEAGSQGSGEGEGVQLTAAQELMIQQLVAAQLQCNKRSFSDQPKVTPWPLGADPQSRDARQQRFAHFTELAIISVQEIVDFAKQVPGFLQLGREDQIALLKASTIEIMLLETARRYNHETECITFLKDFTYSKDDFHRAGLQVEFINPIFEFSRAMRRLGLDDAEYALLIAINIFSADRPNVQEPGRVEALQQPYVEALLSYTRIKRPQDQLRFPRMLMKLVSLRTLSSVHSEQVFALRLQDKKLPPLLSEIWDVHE
Chain of human Liver X receptor alpha (hLXRα) (Q13133 whole entry, looked up): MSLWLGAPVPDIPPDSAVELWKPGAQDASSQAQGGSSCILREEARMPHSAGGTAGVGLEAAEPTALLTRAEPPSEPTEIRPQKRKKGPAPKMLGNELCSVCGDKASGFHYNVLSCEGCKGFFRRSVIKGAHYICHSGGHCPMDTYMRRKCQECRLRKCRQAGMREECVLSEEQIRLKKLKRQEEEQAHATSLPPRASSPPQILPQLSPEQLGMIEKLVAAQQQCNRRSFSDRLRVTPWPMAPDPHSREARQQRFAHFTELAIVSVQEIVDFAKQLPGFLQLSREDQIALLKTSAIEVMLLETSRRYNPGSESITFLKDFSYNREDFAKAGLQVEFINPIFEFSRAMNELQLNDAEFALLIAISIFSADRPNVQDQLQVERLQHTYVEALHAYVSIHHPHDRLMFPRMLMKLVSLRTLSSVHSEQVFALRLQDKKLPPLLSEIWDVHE
Chain of human vitamin D receptor (hVDR) (P11473 whole entry, looked up): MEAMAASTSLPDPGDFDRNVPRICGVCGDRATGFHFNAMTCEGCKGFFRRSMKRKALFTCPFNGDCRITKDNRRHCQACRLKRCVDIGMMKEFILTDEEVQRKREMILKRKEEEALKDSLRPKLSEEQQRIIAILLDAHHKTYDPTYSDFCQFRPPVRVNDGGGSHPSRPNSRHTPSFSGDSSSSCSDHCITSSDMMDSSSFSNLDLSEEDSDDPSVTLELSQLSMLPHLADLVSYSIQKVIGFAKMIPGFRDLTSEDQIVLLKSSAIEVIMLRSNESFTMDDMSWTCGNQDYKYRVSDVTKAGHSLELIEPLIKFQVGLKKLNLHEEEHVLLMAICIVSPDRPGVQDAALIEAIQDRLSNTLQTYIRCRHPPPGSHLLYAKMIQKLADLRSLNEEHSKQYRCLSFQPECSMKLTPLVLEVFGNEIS

Compound: COc1ccc(C)cc1-c1ncc(S(=O)(=O)c2ccc(C(C)(C)C)cc2)n1C [LC-71, 5-((4-(tert-butyl)phenyl)sulfonyl)-2-(2-methoxy-5-methylphenyl)-1-methyl-1H-imidazole]
IC50 (HepG2 cells; NA = not active): 34.9 µM

Compound: COc1ccc(Cl)cc1-n1nnc(S(=O)(=O)c2ccc(C(C)C)cc2)c1C [LC-3]
IC50 (hPXR [3]): 0.52 µM

Compound: COc1cc(C(C)=O)c(C)cc1-n1nnc(S(=O)(=O)c2ccc(C(C)(C)C)cc2)c1C [LC-26, 1-(4-(4-((4-(tert-butyl)phenyl)sulfonyl)-5-methyl-1H-1,2,3-triazol-1-yl)-5-methoxy-2-methylphenyl)ethan-1-one]
EC50 (hPXR [2]): 0.16 µM | IC50 (HepG2 cells; NA = not active): 3.4 µM

Compound: COc1ccc(OC)c(-n2nnc(S(=O)(=O)c3ccc(C(C)(C)C)c(O)c3)c2C)c1 [LC-88, 2-(tert-butyl)-5-((1-(2,5-dimethoxyphenyl)-5-methyl-1H-1,2,3-triazol-4-yl)sulfonyl)phenol]
IC50 (HepG2 cells): 13 µM | EC50 (hPXR [3]): 1.4 µM

Compound: COc1cc(C#N)c(Cl)cc1-n1nnc(S(=O)(=O)c2ccc(C(C)(C)C)cc2)c1C [LC-36, 4-(4-((4-(tert-butyl)phenyl)sulfonyl)-5-methyl-1H-1,2,3-triazol-1-yl)-2-chloro-5-methoxybenzonitrile]
EC50 (hPXR [3]): 2.4 µM

Compound: COc1ccc(OC)c(-c2ncc(S(=O)(=O)c3ccc(C(C)(C)C)cc3)n2C)c1 [LC-70, 5-((4-(tert-butyl)phenyl)sulfonyl)-2-(2,5-dimethoxyphenyl)-1-methyl-1H-imidazole]
IC50 [5]: 16.1 µM | IC50 [6]: 14.3 µM | IC50 [1, 11]: 28.3 µM | IC50 (HepG2 cells; NA = not active): 15.3 µM | IC50 [7]: 20.4 µM

Compound: COc1ccc(O)cc1-n1nnc(S(=O)(=O)c2ccc(C(C)(C)C)cc2)c1C [LC-87, 3-(4-((4-(tert-butyl)phenyl)sulfonyl)-5-methyl-1H-1,2,3-triazol-1-yl)-4-methoxyphenol]
EC50 (hPXR [3]): 12 µM

Compound: COc1ccc(C)cc1-n1nnc(S(=O)(=O)c2ccc(C(C)C)cc2)c1C [LC-2]
IC50 (hPXR [3]): 0.66 µM

Compound: O=C(Nc1ccccc1)c1cc([N+](=O)[O-])ccc1Cl [GW9662, reference compound]
IC50 ([1]; PPARγ antagonistic assay, 100 nM rosiglitazone, read-out: IC50): 0.241 µM

Compound: COc1ccc(OC)c(-n2nnc(S(=O)(=O)c3ccc(C(C)C)cc3)c2C)c1 [LC-4]
IC50 (hPXR [3]): 0.63 µM

Compound: COc1ccc(OC)c(-n2nnc(S(=O)(=O)c3ccc(C(C)(C)C)cc3O)c2C)c1 [LC-84, 5-(tert-butyl)-2-((1-(2,5-dimethoxyphenyl)-5-methyl-1H-1,2,3-triazol-4-yl)sulfonyl)phenol]
IC50 (HepG2 cells): 20.9 µM | EC50 (hPXR [3]): 3.3 µM

Compound: COc1ccc(OC)c(-n2nnc(S(=O)(=O)c3ccc(C(C)(C)C)cc3)c2CCl)c1 [LC-64, 4-((4-(tert-butyl)phenyl)sulfonyl)-5-(chloromethyl)-1-(2,5-dimethoxyphenyl)-1H-1,2,3-triazole]
IC50 [5]: 5.8 µM | IC50 [6]: 6.3 µM | IC50 [8]: 7.3 µM | IC50 [9]: 4.1 µM | IC50 [1, 11]: 1.5 µM | IC50 (HepG2 cells; NA = not active): 7.9 µM | IC50 [4]: 4.1 µM | IC50 [10]: 6.5 µM | IC50 [7]: 5.6 µM

Compound: Cc1c(S(=O)(=O)c2ccc(C(C)(C)C)cc2)nnn1-c1cc(O)ccc1O [LC-85, 2-(4-((4-(tert-butyl)phenyl)sulfonyl)-5-methyl-1H-1,2,3-triazol-1-yl)benzene-1,4-diol]
IC50 [1, 11]: 12.8 µM | IC50 [4]: 31 µM | IC50 (hPXR [3]): 3.9 µM

Compound: COc1cc(Br)c(C)cc1-n1nnc(S(=O)(=O)c2ccc(C(C)(C)C)cc2)c1C [LC-20, 1-(4-Bromo-2-Methoxy-5-Methylphenyl)-4-((4-(tert-butyl)phenyl)sulfonyl)-5-methyl-1H-1,2,3-triazole]
EC50 (hPXR [2]): 0.91 µM

Compound: COc1ccc(Cl)cc1-c1ncc(S(=O)(=O)c2ccc(C(C)(C)C)cc2)n1C [LC-72, 5-((4-(tert-butyl)phenyl)sulfonyl)-2-(5-chloro-2-methoxyphenyl)-1-methyl-1H-imidazole]
IC50 (HepG2 cells; NA = not active): 30.9 µM

Compound: COC(=O)c1cc(OC)c(-n2nnc(S(=O)(=O)c3ccc(C(C)(C)C)cc3)c2C)cc1C [LC-25, methyl 4-(4-((4-(tert-butyl)phenyl)sulfonyl)-5-methyl-1H-1,2,3-triazol-1-yl)-5-methoxy-2-methylbenzoate]
EC50 (hPXR [2]): 1.7 µM

Compound: COc1ccc(O)c(-n2nnc(S(=O)(=O)c3ccc(C(C)(C)C)c(O)c3)c2C)c1 [LC-83, 2-(4-((4-(tert-butyl)-3-hydroxyphenyl)sulfonyl)-5-methyl-1H-1,2,3-triazol-1-yl)-4-methoxyphenol]
IC50 (HepG2 cells): 16.2 µM | EC50 (hPXR [3]): 5 µM

Compound: COc1cc(-n2nnc(S(=O)(=O)c3ccc(C(C)(C)C)cc3)c2C)c(OC)cc1Cl [LC-9, 4-((4-(tert-butyl)phenyl)sulfonyl)-1-(4-chloro-2,5-dimethoxyphenyl)-5-methyl-1H-1,2,3-triazole]
EC50 (hPXR [2]): 0.84 µM

Compound: COc1cc(-n2nnc(S(=O)(=O)c3ccc(C(C)(C)C)cc3)c2C)c(OC)cc1C#N [LC-17, 4-(4-((4-(tert-butyl)phenyl)sulfonyl)-5-methyl-1H-1,2,3-triazol-1-yl)-2,5-dimethoxybenzonitrile]
EC50 (hPXR [2]): 1.3 µM

Compound: COc1cc(-n2nnc(S(=O)(=O)c3ccc(C(C)(C)C)cc3)c2C)c(OC)cc1C [LC-11, 4-((4-(tert-butyl)phenyl)sulfonyl)-1-(2,5-dimethoxy-4-methylphenyl)-5-methyl-1H-1,2,3-triazole]
EC50 (hPXR [2]): 0.88 µM

Continued, in another order:

IC50 [1, 11]: 12.8 µM
Compound: COc1ccc(OC)c(-n2nnc(S(=O)(=O)c3ccc(C(C)(C)C)cc3)c2Br)c1 [LC-61, 5-bromo-4-((4-(tert-butyl)phenyl)sulfonyl)-1-(2,5-dimethoxyphenyl)-1H-1,2,3-triazole]

IC50 [1, 11]: 14.4 µM
Compound: COc1cc(Cl)c(Cl)cc1-n1nnc(S(=O)(=O)c2ccc(C(C)(C)C)cc2)c1C [LC-28, 4-((4-(tert-butyl)phenyl)sulfonyl)-1-(4,5-dichloro-2-methoxyphenyl)-5-methyl-1H-1,2,3-triazole]

EC50 (hPXR [2]): 0.76 µM
Compound: CCc1cc(OC)c(-n2nnc(S(=O)(=O)c3ccc(C(C)(C)C)cc3)c2C)cc1Cl [LC-31, 4-((4-(tert-butyl)phenyl)sulfonyl)-1-(5-chloro-4-ethyl-2-methoxyphenyl)-5-methyl-1H-1,2,3-triazole]
IC50 (HepG2 cells; NA = not active): 14.8 µM

EC50 (hPXR [2]): 1.1 µM
Compound: COc1ccc(Cl)cc1-n1nnc(Nc2ccc(C(C)(C)C)cc2)c1C [LC-45, N-(4-(tert-butyl)phenyl)-1-(5-chloro-2-methoxyphenyl)-5-methyl-1H-1,2,3-triazol-4-amine]
IC50 (HepG2 cells; NA = not active): 30.7 µM

EC50 ([4]; Ag = compound exhibited agonism, read-out: RXRβ (Ag)): 19.3 µM
Compound: COC(=O)Cc1c(S(=O)(=O)c2ccc(C(C)(C)C)cc2)nnn1-c1cc(C)ccc1OC [LC-66, methyl 2-(4-((4-(tert-butyl)phenyl)sulfonyl)-1-(2-methoxy-5-methylphenyl)-1H-1,2,3-triazol-5-yl)acetate]

EC50 (hPXR [2]): 0.7 µM
Compound: COc1ccc(Cl)cc1-n1nnc(N(C)c2ccc(C(C)(C)C)cc2)c1C [LC-48, N-(4-(tert-butyl)phenyl)-1-(5-chloro-2-methoxyphenyl)-N,5-dimethyl-1H-1,2,3-triazol-4-amine]
IC50 (HepG2 cells; NA = not active): 33.8 µM

EC50 (hPXR [2]): 1.2 µM
Compound: COc1ccc(C)cc1-n1nnc(Nc2ccc(C(C)(C)C)cc2)c1C [LC-44, N-(4-(tert-butyl)phenyl)-1-(2-methoxy-5-methylphenyl)-5-methyl-1H-1,2,3-triazol-4-amine]
IC50 (HepG2 cells; NA = not active): 22.5 µM

EC50 (hPXR [2]): 1.4 µM
Compound: COc1ccc(Cl)cc1-c1nc(C)c(S(=O)(=O)c2ccc(C(C)(C)C)cc2)n1C [LC-78, 5-((4-(tert-butyl)phenyl)sulfonyl)-2-(5-chloro-2-methoxyphenyl)-1,4-dimethyl-1H-imidazole]
IC50 (HepG2 cells; NA = not active): 24.4 µM

EC50 (hPXR [2]): 1.3 µM
Compound: COc1cc(C(C)=O)c(Cl)cc1-n1nnc(S(=O)(=O)c2ccc(C(C)(C)C)cc2)c1C [LC-35, 1-(4-(4-((4-(tert-butyl)phenyl)sulfonyl)-5-methyl-1H-1,2,3-triazol-1-yl)-2-chloro-5-methoxyphenyl)ethan-1-one]
IC50 (HepG2 cells; NA = not active): 7.2 µM

EC50 (hPXR [2]): 6.1 µM
Compound: COc1ccc(C)cc1-n1nnc(S(=O)(=O)c2ccc(C(C)(C)C)cc2)c1CCl [LC-65, 4-((4-(tert-butyl)phenyl)sulfonyl)-5-(chloromethyl)-1-(2-methoxy-5-methylphenyl)-1H-1,2,3-triazole]
IC50 (HepG2 cells; NA = not active): 7 µM

EC50 (hPXR [2]): 1 µM
Compound: COc1ccc(Cl)cc1-n1nnc(S(=O)(=O)c2ccc(C(C)(C)C)cc2)c1N [LC-39, 4-((4-(tert-butyl)phenyl)sulfonyl)-1-(5-chloro-2-methoxyphenyl)-1H-1,2,3-triazol-5-amine]
IC50 (HepG2 cells; NA = not active): 16.1 µM

IC50 [7]: 4.4 µM
Compound: COc1ccc(OC)c(-c2nc(C)c(S(=O)(=O)c3ccc(C(C)(C)C)cc3)[nH]2)c1 [LC-73, 5-((4-(tert-butyl)phenyl)sulfonyl)-2-(2,5-dimethoxyphenyl)-4-methyl-1H-imidazole]

IC50 [1, 11]: 10.5 µM
Compound: COc1ccc(Cl)cc1-n1nnc(S(=O)(=O)c2ccc(C(C)(C)C)cc2)c1Br [LC-62, 5-bromo-4-((4-(tert-butyl)phenyl)sulfonyl)-1-(5-chloro-2-methoxyphenyl)-1H-1,2,3-triazole]
